Measurements taken from paper PMC10488055, “Investigation of Potential cGMP-Specific PDE V and Aminopeptidase N Inhibitors of Allium ampeloprasum L. and Its Bioactive Components: Kinetic and Molecular Docking Studies” (International Journal of Molecular Sciences, 2023).
Where two headings read alike, the source gives them in different places.

Key:
Assay type in all cases: biochemical
APN = target: T1, APN (Homo sapiens, UniProt P15144); assay: Kinetic assay (Lineweaver–Burk) on APN; details: for inhibition type against APN: from Kik/Kiv ratio, new decision system [27]; for Vmax value of APN, fold of non-treated group: non-treated 0.316 mU/min = 1.0-fold
T1 construct: purchased Sigma-Aldrich
Method: (§1) Lineweaver–Burk plots were employed to analyze the inhibition of the target enzyme. These plots were represented as 1/velocity (1/V) versus 1/substrate concentration (1/(S)) in the presence or absence of each sample (non-treated (black circle), 10 μg or 1 mM (blue circle), 20 μg or 2 mM (green circle), 50 μg or 5 mM (orange circle), and 100 μg or 10 mM (purple circle)) as an inhibitor against APN.
(§2) These reactions were conducted in a total volume of 80 μL. by a previously described method. The Michaelis–Menten constant (Km) and maximal velocity (Vmax) were calculated using the x and y intercepts, respectively. […] Additionally, the Kik and Kiv inhibition constants were calculated using previously described methods.

[1] = target: cGMP-specific PDE V (PDE5) (Homo sapiens, UniProt O76074); assay: cGMP-specific PDE V (PDE5) enzyme activity assay with p-NPPPh substrate; details: for inhibition rate of PDE5: at the highest concentration (in vitro enzyme assay); for reduction of PDE5 enzymatic activity: range over 1, 2, 5, and 10 mM
Method: Following the addition of 10 mM p-NPPPh, the reaction mixture was incubated at 37 °C for 10 min. After the incubation period, the concentration of liberated 4-nitrophenol was determined by measuring its absorbance values at a wavelength of 405 nm using a microplate reader. […] Con, control group treated enzyme only.
The specific substrate used for PDE5 was p-NPPPh, following a previously described method. The enzyme solution was prepared by adding 1 U of PDE5 to a volume of 10 μL in 40 mM Tris-HCl buffer at pH 7.4. The substrate solution (10 mM) was prepared by dissolving the substrate in Tris-HCl buffer at pH 7.4. […] Following the pretreatment, the reaction was initiated and allowed to continue for an additional 10 min at 37 °C upon the addition of 10 mM p-NPPPh in a total reaction volume of 80 μL. Following the incubation period, the absorbance of the mixture was measured at 405 nm using a microplate reader. The enzyme activity was quantified in units, where one unit corresponds to the amount of enzyme needed to hydrolyze 1 micromol of p-NPPPh. The inhibitory activity of PDE5 (%) was calculated by determining the residual activity (U). PDE5 inhibitory activity (%) = ([Residual unit control without sample − Residual unit control with sample]/Residual unit control without sample) × 100

aminopeptidase N (APN) = target: T2, aminopeptidase N (APN) (Homo sapiens, UniProt P15144); assay: Aminopeptidase N (APN) enzyme activity assay with L-p-NA substrate; details: for inhibition of APN in in vitro enzyme assay: at the highest concentration; for enzymatic activity of APN: treatment with 10 mM, without sample 0.38 U
T2 construct: purchased Sigma-Aldrich
Method: Figure 2 Effects of AAE and AAE-derived compounds on APN activity. […] The reaction was started by adding 20 μL enzyme solution (1 mU) and incubated for 60 min at 37 °C. The absorbance of samples were measured at 405 nm to determine the formation of p-nitroaniline. Each value is the mean ± SD of triplicate measurements. * p < 0.05 and ** p < 0.01, compared to each control group (Con). Con, control group treated enzyme only.
The activity of APN was determined according to Melzig et al.. Briefly, the enzyme substrate L-p-NA (2 mM) was dissolved in 50 mM N-(2-hydroxyethyl)piperazine-N’-2ethansulfonic acid (HEPES) buffer (pH 7.4) containing 154 mM NaCl. […] The reaction was started by adding 20 μL enzyme solution (approximately 1 mU in HEPES-buffer) and incubated for 60 min at 37 °C. The samples were measured spectrophotometrically at 405 nm to determine the formation of p-nitroanilmne. APN inhibitory activity (%) = ([Absorbance control without sample − Absorbance control with sample]/Absorbance control without sample) × 100

PDE5 = PDE5 (Homo sapiens, UniProt O76074); assay: Kinetic assay (Lineweaver–Burk) on PDE5;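 for Kcat: pure compound doses in mM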; parameters: Vmax / Kcat: unit of the concentration uncertain; details: for Ki / Kik/Kiv: PDE5; for Kik/Kiv: ratio according to Yang et al. [27]; for inhibition type against PDE5: from changes of Km and 1/Vmax (Lineweaver–Burk), putative decision system [27]; for Vmax value of PDE5, fold of non-treated group: non-treated 1.039 mU/min = 1.0-fold
Method: as §1, with “(1/[S])” for “(1/(S))”, “(orange” for “(blue”, “(silver” for “(green”, “(yellow” for “(orange”, “(blue” for “(purple”, “PDE5.” for “APN.”
as §2

[2] = APN treated with compound 10 mM
[3] = APN, calculated by method of ref 27, read-out: Kik
[4] = APN, calculated by method of ref 27, read-out: Kiv
[5] = PDE5 treated with compound 1 (unit uncertain)
[6] = PDE5 treated with compound 2 (unit uncertain)
[7] = PDE5 treated with compound 5 (unit uncertain)
[8] = PDE5 treated with compound 10 (unit uncertain)

T2 sequence (P15144 whole entry, species assumed): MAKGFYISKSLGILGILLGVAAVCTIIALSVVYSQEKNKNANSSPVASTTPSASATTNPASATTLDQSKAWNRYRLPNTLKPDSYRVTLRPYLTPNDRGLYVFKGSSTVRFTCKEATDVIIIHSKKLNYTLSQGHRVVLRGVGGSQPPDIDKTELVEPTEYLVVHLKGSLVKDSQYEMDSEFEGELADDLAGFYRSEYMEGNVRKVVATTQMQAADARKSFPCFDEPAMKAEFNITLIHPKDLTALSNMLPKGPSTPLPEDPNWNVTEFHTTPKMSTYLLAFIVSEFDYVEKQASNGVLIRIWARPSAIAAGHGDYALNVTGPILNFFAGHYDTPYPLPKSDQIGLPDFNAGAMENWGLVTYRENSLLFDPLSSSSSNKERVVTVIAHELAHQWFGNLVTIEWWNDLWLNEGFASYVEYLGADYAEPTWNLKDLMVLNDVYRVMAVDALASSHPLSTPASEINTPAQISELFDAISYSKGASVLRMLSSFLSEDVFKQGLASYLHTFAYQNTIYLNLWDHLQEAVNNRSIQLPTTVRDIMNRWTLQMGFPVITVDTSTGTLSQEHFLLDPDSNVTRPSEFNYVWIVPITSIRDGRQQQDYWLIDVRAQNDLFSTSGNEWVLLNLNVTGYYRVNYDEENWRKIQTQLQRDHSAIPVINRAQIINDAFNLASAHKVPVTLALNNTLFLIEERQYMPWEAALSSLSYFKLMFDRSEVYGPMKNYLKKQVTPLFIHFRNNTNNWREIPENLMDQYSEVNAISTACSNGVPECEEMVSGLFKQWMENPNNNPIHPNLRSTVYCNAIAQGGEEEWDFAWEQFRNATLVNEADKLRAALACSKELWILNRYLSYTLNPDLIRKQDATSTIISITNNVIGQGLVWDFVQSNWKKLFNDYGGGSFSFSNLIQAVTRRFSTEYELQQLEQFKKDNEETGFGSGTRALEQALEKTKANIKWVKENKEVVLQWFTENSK
T1 sequence (P15144 whole entry, species assumed): as above

Row | SMILES | Kcat (APN; APN treated with compound 1 mM) | Vmax (APN; APN treated with compound 1 mM) | Kcat (APN; APN treated with compound 2 mM) | Vmax (APN; APN treated with compound 2 mM) | Kcat (APN; APN treated with compound 5 mM) | Vmax (APN; APN treated with compound 5 mM) | Kcat (APN; [2]) | Vmax (APN; [2]) | Ki (APN; APN, read-out: Ki) | inhibition type against APN (APN) | inhibition of APN in in vitro enzyme assay (aminopeptidase N (APN)) | enzymatic activity of APN (aminopeptidase N (APN)) | Kcat (PDE5; [5]) | Vmax (PDE5; [5]) | Kcat (PDE5; [6]) | Vmax (PDE5; [6]) | Kcat (PDE5; [7]) | Vmax (PDE5; [7]) | Kcat (PDE5; [8]) | Vmax (PDE5; [8]) | other results
1 | C=CCSSSCC=C [DATS, diallyl trisulfide] | 368.9 ± 7.4 s⁻¹ | 0.297 ± 0.006 mU/min | 365.3 ± 6.2 s⁻¹ | 0.294 ± 0.005 mU/min | 309.2 ± 5.0 s⁻¹ | 0.249 ± 0.004 mU/min | 285.9 ± 5.0 s⁻¹ | 0.230 ± 0.004 mU/min | 18.7 mM | mixed-type | 19% | 0.31 ± 0.02 U | 7105 ± 197 k s^−1 | 0.940 ± 0.026 mU/min | 6757 ± 242 k s^−1 | 0.894 ± 0.032 mU/min | 4955 ± 174 k s^−1 | 0.655 ± 0.023 mU/min | 3371 ± 144 k s^−1 | 0.446 ± 0.019 mU/min | Ki (APN; [3]): 68.5 mM; Ki (APN; [4]): 26.9 mM; Kik/Kiv (APN; APN, ratio according to Yang et al. [27]): 2.5; Km value of APN, fold of non-treated (APN; highest concentration): 1.15 fold; Vmax value of APN, fold of non-treated group (APN; highest concentration): 0.73 fold; IC50 [1]: 9.49 mM; inhibition rate of PDE5 [1]: 52%; reduction of PDE5 enzymatic activity [1]: 8.34–51.75%; Ki (PDE5): 7.53 mM; Kik/Kiv (PDE5): 17.8; inhibition type against PDE5 (PDE5): noncompetitive-type; Vmax value of PDE5, fold of non-treated group (PDE5; highest concentration): 0.43 fold
2 | C[S@+]([O-])C[C@H](N)C(=O)O [MT, methiin] | 367.0 ± 3.7 s⁻¹ | 0.296 ± 0.003 mU/min | 310.6 ± 6.2 s⁻¹ | 0.250 ± 0.005 mU/min | 246.8 ± 3.7 s⁻¹ | 0.199 ± 0.003 mU/min | 218.9 ± 2.5 s⁻¹ | 0.176 ± 0.002 mU/min | 13.4 mM | noncompetitive-type | 32% | 0.26 ± 0.02 U | 6261 ± 189 k s^−1 | 0.828 ± 0.025 mU/min | 5580 ± 159 k s^−1 | 0.738 ± 0.021 mU/min | 4007 ± 98 k s^−1 | 0.530 ± 0.013 mU/min | 3673 ± 144 k s^−1 | 0.486 ± 0.019 mU/min | Ki (APN; [4]): 12.6 mM; Vmax value of APN, fold of non-treated group (APN; highest concentration): 0.56 fold; IC50 [1]: 7.56 mM; reduction of PDE5 enzymatic activity [1]: 24.83–53.90%; Ki (PDE5): 21.5 mM; Kik/Kiv (PDE5): 3.2; inhibition type against PDE5 (PDE5): uncompetitive-type; Km value of PDE5, fold of non-treated (PDE5; highest concentration): 0.74 fold; Vmax value of PDE5, fold of non-treated group (PDE5; highest concentration): 0.47 fold
3 | O=c1c(O)c(-c2ccc(O)cc2)oc2cc(O)cc(O)c12 [KAE, kaempferol] | 396.3 ± 7.5 s⁻¹ | 0.319 ± 0.006 mU/min | 352.8 ± 7.4 s⁻¹ | 0.284 ± 0.006 mU/min | 308.0 ± 5.0 s⁻¹ | 0.248 ± 0.004 mU/min | 268.5 ± 3.7 s⁻¹ | 0.216 ± 0.003 mU/min | 11.9 mM | uncompetitive-type | 29% | 0.27 ± 0.01 U | 5076 ± 98 k s^−1 | 0.671 ± 0.013 mU/min | 4591 ± 76 k s^−1 | 0.607 ± 0.010 mU/min | 2390 ± 121 k s^−1 | 0.316 ± 0.016 mU/min | 1228 ± 69 k s^−1 | 0.162 ± 0.009 mU/min | Ki (APN; [3]): 42.1 mM; Ki (APN; [4]): 21.7 mM; IC50 (aminopeptidase N (APN)): > 10 mM; inhibition type against PDE5 (PDE5): uncompetitive-type
4 | C/C=C/[S@+]([O-])C[C@H](N)C(=O)O [IA, isoalliin] | 381.3 ± 6.2 s⁻¹ | 0.307 ± 0.005 mU/min | 331.6 ± 7.4 s⁻¹ | 0.267 ± 0.006 mU/min | 298.9 ± 4.9 s⁻¹ | 0.241 ± 0.004 mU/min | 275.8 ± 3.7 s⁻¹ | 0.222 ± 0.003 mU/min | 33.1 mM | mixed-type | 26% | 0.28 ± 0.01 U | 6587 ± 159 k s^−1 | 0.871 ± 0.021 mU/min | 5489 ± 151 k s^−1 | 0.726 ± 0.020 mU/min | 4387 ± 129 k s^−1 | 0.580 ± 0.017 mU/min | 4018 ± 114 k s^−1 | 0.531 ± 0.015 mU/min | Ki (APN; [4]): 23.7 mM; Vmax value of APN, fold of non-treated group (APN; highest concentration): 0.70 fold; IC50 [1]: 8.42 mM; inhibition rate of PDE5 [1]: 51%; reduction of PDE5 enzymatic activity [1]: 17.23–51.41%; Ki (PDE5): 10.8 mM; Kik/Kiv (PDE5): 13.0; inhibition type against PDE5 (PDE5): noncompetitive-type; Vmax value of PDE5, fold of non-treated group (PDE5; highest concentration): 0.51 fold
5 | C=CCSSCC=C [DADS, diallyl disulfide] | 394.8 ± 3.7 s⁻¹ | 0.318 ± 0.003 mU/min | 379.5 ± 7.4 s⁻¹ | 0.306 ± 0.006 mU/min | 368.8 ± 6.2 s⁻¹ | 0.297 ± 0.005 mU/min | 364.9 ± 5.0 s⁻¹ | 0.294 ± 0.004 mU/min | 65.7 mM | uncompetitive-type | 11% | 0.34 ± 0.02 U | 7253 ± 189 k s^−1 | 0.959 ± 0.025 mU/min | 6625 ± 159 k s^−1 | 0.876 ± 0.021 mU/min | 5905 ± 83 k s^−1 | 0.781 ± 0.011 mU/min | 4383 ± 76 k s^−1 | 0.580 ± 0.010 mU/min | Vmax value of APN, fold of non-treated group (APN; highest concentration): 0.93 fold; IC50 (aminopeptidase N (APN)): > 10 mM; Kik/Kiv (PDE5): 16.0; inhibition type against PDE5 (PDE5): noncompetitive-type; Vmax value of PDE5, fold of non-treated group (PDE5; highest concentration): 0.56 fold
